From ChEMBL document CHEMBL2434820, “Design, synthesis, and biological evaluation of novel 2-ethyl-5-phenylthiazole-4-carboxamide derivatives as protein tyrosine phosphatase 1B inhibitors with improved cellular efficacy” (Eur J Med Chem, 2013) come the findings set out here.

pIC50: −log10 of the molar value.

In experiment [1] the target is T1, Tyrosine-protein phosphatase non-receptor type 1 (Homo sapiens, UniProt P18031).
T1 sequence (P18031 whole entry): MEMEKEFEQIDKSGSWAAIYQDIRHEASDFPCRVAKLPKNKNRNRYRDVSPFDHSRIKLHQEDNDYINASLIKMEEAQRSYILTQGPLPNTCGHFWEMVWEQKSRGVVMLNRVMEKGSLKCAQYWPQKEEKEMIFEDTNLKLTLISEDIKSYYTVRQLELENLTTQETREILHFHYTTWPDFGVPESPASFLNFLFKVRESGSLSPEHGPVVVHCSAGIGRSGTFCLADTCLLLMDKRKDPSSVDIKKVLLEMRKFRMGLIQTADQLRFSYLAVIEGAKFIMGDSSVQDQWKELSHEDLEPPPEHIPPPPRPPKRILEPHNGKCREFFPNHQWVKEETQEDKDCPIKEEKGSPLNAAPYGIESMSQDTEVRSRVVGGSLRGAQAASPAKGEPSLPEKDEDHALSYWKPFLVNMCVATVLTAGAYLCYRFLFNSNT
In words: Inhibition of GST-tagged PTP1B (unknown origin) using pNPP as substrate measured for 2 mins by colorimetric analysis.

Experiment [2] concerns the target T2, M-phase inducer phosphatase 2 (Homo sapiens, UniProt P30305).
T2 sequence (P30305 whole entry): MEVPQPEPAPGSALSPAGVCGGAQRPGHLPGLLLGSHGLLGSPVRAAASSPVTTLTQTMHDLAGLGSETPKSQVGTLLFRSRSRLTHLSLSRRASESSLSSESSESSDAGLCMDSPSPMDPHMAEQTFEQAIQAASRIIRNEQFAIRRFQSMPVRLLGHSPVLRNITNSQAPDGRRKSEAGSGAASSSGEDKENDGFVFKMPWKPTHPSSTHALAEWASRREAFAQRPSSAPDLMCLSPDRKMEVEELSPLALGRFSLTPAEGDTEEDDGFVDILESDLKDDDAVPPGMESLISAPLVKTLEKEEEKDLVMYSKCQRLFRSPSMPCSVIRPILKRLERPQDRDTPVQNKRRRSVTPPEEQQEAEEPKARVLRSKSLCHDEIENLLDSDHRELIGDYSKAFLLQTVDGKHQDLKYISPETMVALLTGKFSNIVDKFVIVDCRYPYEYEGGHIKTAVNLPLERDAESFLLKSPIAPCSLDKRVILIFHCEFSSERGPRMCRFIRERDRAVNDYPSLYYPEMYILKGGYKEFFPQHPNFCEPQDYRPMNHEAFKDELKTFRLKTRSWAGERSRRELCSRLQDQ
As to the kind of experiment: Inhibition of CDC25B (unknown origin).

In experiment [3] the target is T3, Tyrosine-protein phosphatase non-receptor type 2 (Homo sapiens, UniProt P17706).
T3 sequence (P17706 whole entry): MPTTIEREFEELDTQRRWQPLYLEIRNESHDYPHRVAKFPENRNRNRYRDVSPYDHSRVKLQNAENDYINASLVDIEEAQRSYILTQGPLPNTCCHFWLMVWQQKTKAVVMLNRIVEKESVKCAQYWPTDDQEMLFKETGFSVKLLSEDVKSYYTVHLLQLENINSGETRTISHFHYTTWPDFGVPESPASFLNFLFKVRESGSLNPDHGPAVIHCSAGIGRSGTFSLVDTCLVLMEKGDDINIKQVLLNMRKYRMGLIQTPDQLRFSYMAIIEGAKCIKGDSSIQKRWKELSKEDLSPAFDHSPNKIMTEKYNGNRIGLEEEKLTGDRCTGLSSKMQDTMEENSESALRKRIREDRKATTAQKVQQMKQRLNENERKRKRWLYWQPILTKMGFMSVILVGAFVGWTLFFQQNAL
In words: Inhibition of TCPTP (unknown origin).

On to `O=C(CCc1c[nH]c2ccccc12)N[C@@H](Cc1ccc(OCc2ccccc2)cc1)c1nc(C(=O)Nc2cc(F)ccc2C(=O)O)c(-c2ccccc2)s1`, for which the pIC50 (as a rule, −log10 of the IC50, conventionally taken in molar units) in experiment [1] was 6.27; in experiment [2], 5.79; in experiment [3] it was 5.85.
